Key:
mesenchymal stem cells [1] = assay: In vitro wound healing assay; type: cell-based, human; conditions: passage 3, 4 days post wound formation
Protocol: Wound was performed in MSCs cultures at ˜70% confluence using 200 μl or 1000 μl tip. Four days later the cells were fixated using 10% cold Formalin (Sigma) and stained with Harris Hematoxylin (Sigma). The in-vitro wound healing process was evaluated using microscope.

mesenchymal stem cells [2] = assay: CFU-F assay; type: cell-based, human; conditions: 5 mM nicotinamide
Protocol: Cultured MSCs were seeded in 6-well plates at density of 50-100 cells/cm^2 and maintained with DMEM and 10% FBS. After 14 days the cells were fixed using 10% cold Formalin (Sigma) and stained with Harris Hematoxylin (Sigma). Clones (cluster of more than 50 cells with evident epicenter) are stained blue-purple and counted using microscope.

[3] = tested on: umbilical cord-derived CD133+ hematopoietic stem cells; assay: Differentiation and proliferation of ex-vivo cultured hematopoietic stem cells (FACS surface markers); type: cell-based
Protocol: Umbilical cord-derived hematopoietic stem cells were isolated using CD133 microbeads and CliniMACS® separator (Miltenyi, Inc. Auburn, Calif.), and cultured for 3 weeks in MEMα supplemented with 50 ng/ml TPO, IL6, SCF, Flt3, fetal bovine serum, ±2.5 or 5 mM nicotinamide, and/or 10, 50 or 200 ng/ml FGF4. After 3 weeks in culture the cells were stained for surface markers (CD38, CD133, CD33, CD19) and the cell populations determined by FACS analysis (see below). Results are expressed as percentage of total population assayed.
At different time points the cells were detached with 0.25% trypsin-EDTA. The cells were washed with a PBS solution containing 1% BSA, and stained (at 4° C. for 30 min) with either fluorescein isothiocyanate (FITC) or phycoerythrin (PE)-conjugated antibodies: 105 PE, 105 FITC (Serotec, Raleigh, N.C.), 45 FITC, 14 FITC, HLA-DR FITC, 106 PE, 31 PE (BD, Franklin Lakes N.J.), 34 PE (Dako, Glostrup, Denmark), 73 PE, HLA class1 PE, 49b PE (Pharmingen, San Diego, Calif.), 29 PE, 44 PE, 54 FITC, 59 PE, 90 PE (BioLegend, San Diego, Calif.). CD133—(AC141) PE (Miltenyi, Auburn, Calif.), CD38 FITC (Dako, Glostrup, Denmark), CD19 FITC (BD Biosciences, Franklin Lakes N.J.), CD33 FITC (BD Bioscience, Franklin Lakes N.J.).
The cells were then washed in the above buffer and analyzed using a FACScalibur® flow cytometer (Becton Dickinson, Franklin Lakes N.J.). The cells were passed at a rate of up to 1000 cells/second, using a 488 nm argon laser beam as the light source for excitation. Emission of 10000 cells was measured using logarithmic amplification, and analyzed using the CellQuest software (Becton Dickinson). Cells stained with FITC- and PE-conjugated isotype control antibodies were used to determine background fluorescence.
Umbilical cord-derived CD133+ hematopoietic stem cells were isolated and cultured for 3 weeks in medium supplemented with early-acting growth factors and fetal bovine serum, nicotinamide and/or FGF4. After 3 weeks in culture the cells were stained for surface markers (CD38, CD133, CD19) and the cell populations determined by FACS analysis. Cell proliferation was assessed by counting total cells at three weeks.

NC(=O)c1cccnc1 [nicotinamide, Nicotinamide]
wound closure by MSCs (mesenchymal stem cells [1]): higher ability to perform wound closure | cumulative CFU-F count (mesenchymal stem cells [2]): increases the cumulative CFU-F count | degree of differentiation of hematopoietic progenitor cells (CD38 and CD133-expressing fraction) ([3]; 3 weeks culture, nicotinamide 2.5 or 5 mM, FGF4 10 to 200 ng/ml): decreases significantly | fraction of undifferentiated early progenitors (CD38-CD133+) ([3]; 3 weeks, FIG. 35): significantly greater fraction | differentiation (CD38+ cells) ([3]; 3 weeks, FIG. 36): significant inhibition of differentiation | myeloid lineage differentiation (CD33+ cells) ([3]; 3 weeks, FIG. 37): significant inhibition | lymphoid lineage differentiation (CD19+ cells) ([3]; 3 weeks, FIG. 38): striking inhibition | abundance of committed myeloid or lymphoid cells (CD33, CD19) ([3]; three week cultures): consistently reduced the committed cell fraction
